Values joined by “and” are separate entries in the source; they are usually repeats but may differ in a detail not shown here. Equal entries are not always repeated. Toxic doses and inconclusive results are not listed. Cut-off read from the data, not from the text of the source: active = T/C of 150% or more; inactive = T/C below 125%.
Tested on: L1210 leukemia ip in BDF1 mice, survival T/C
Assay: NCI In Vivo Anticancer Drug Screen. Data for tumor model L1210 Leukemia (intraperitoneal) in B6D2F1 (BDF1) mice
Details: endpoint: mean survival time, higher = longer survival
Outline: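 In this screen, tumor-bearing mice given compound are compared to those given vehicle, and their survival values are reported as a treated-to-control quotient.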

[1] = dose: 100.0 mg/kg/injection, schedule: Q01DX009 (ip), vehicle: saline
[2] = dose: 100.0 mg/kg/injection, schedule: Q04DX003 (ip), vehicle: saline
[3] = dose: 50.0 mg/kg/injection, schedule: Q01DX009 (ip), vehicle: saline with Tween-80
[4] = dose: 100.0 mg/kg/injection, schedule: Q01DX009 (ip), vehicle: saline with Tween-80
[5] = dose: 100.0 mg/kg/injection, schedule: Q04DX002 (ip), vehicle: saline
[6] = dose: 100.0 mg/kg/injection, schedule: Q01DX001 (ip), vehicle: carboxymethylcellulose (CMC)
[7] = dose: 200.0 mg/kg/injection, schedule: Q01DX001 (ip), vehicle: carboxymethylcellulose (CMC)
[8] = dose: 200.0 mg/kg/injection, schedule: Q04DX003 (ip), vehicle: Klucel (hydroxypropylcellulose) (HPC)
[9] = dose: 400.0 mg/kg/injection, schedule: Q01DX001 (ip), vehicle: carboxymethylcellulose (CMC)
[10] = dose: 100.0 mg/kg/injection, schedule: Q01DX001 (ip), vehicle: saline with Tween-80
[11] = dose: 200.0 mg/kg/injection, schedule: Q01DX001 (ip), vehicle: saline with Tween-80
[12] = dose: 400.0 mg/kg/injection, schedule: Q01DX001 (ip), vehicle: saline with Tween-80
[13] = dose: 200.0 mg/kg/injection, schedule: Q04DX003 (ip), vehicle: saline
[14] = dose: 400.0 mg/kg/injection, schedule: Q04DX003 (ip), vehicle: saline
[15] = dose: 100.0 mg/kg/injection, schedule: Q01DX009 (ip), vehicle: Klucel (hydroxypropylcellulose) (HPC)
[16] = dose: 200.0 mg/kg/injection, schedule: Q01DX009 (ip), vehicle: Klucel (hydroxypropylcellulose) (HPC)
[17] = dose: 400.0 mg/kg/injection, schedule: Q01DX009 (ip), vehicle: Klucel (hydroxypropylcellulose) (HPC)
[18] = dose: 100.0 mg/kg/injection, schedule: Q04DX003 (ip), vehicle: Klucel (hydroxypropylcellulose) (HPC)
[19] = dose: 400.0 mg/kg/injection, schedule: Q04DX003 (ip), vehicle: Klucel (hydroxypropylcellulose) (HPC)

Measured: T/C

CN1CCC=C(CN(c2ccccc2)c2ccccc2)C1
inactive: dose: 25.0 mg/kg/injection, schedule: Q01DX009 (ip), vehicle: saline 93 % of control | dose: 25.0 mg/kg/injection, schedule: Q04DX003 (ip), vehicle: saline 92 % of control | dose: 50.0 mg/kg/injection, schedule: Q01DX009 (ip), vehicle: saline 100 % of control | dose: 50.0 mg/kg/injection, schedule: Q04DX003 (ip), vehicle: saline 96 % of control | [1] 91 % of control | [2] 95 % of control

COCCN(CCOC)/N=N/c1nc[nH]c1C(N)=O
inactive: dose: 50.0 mg/kg/injection, schedule: Q01DX001 (ip), vehicle: water 104 % of control | dose: 50.0 mg/kg/injection, schedule: Q04DX003 (ip), vehicle: water 98 % of control | dose: 100.0 mg/kg/injection, schedule: Q01DX001 (ip), vehicle: water 102 % of control | dose: 100.0 mg/kg/injection, schedule: Q04DX003 (ip), vehicle: water 107 % of control | dose: 200.0 mg/kg/injection, schedule: Q01DX001 (ip), vehicle: water 101 % of control | dose: 200.0 mg/kg/injection, schedule: Q04DX003 (ip), vehicle: water 100 % of control | dose: 400.0 mg/kg/injection, schedule: Q01DX001 (ip), vehicle: water 102 % of control | dose: 400.0 mg/kg/injection, schedule: Q04DX003 (ip), vehicle: water 111 % of control

CC/C(=N/N=C(N)N)C(=O)O
inactive: dose: 15.0 mg/kg/injection, schedule: Q01DX Z (ip), vehicle: carboxymethylcellulose (CMC) 102 % of control | dose: 30.0 mg/kg/injection, schedule: Q01DX Z (ip), vehicle: carboxymethylcellulose (CMC) 95 % of control | dose: 60.0 mg/kg/injection, schedule: Q01DX Z (ip), vehicle: carboxymethylcellulose (CMC) 103 % of control and 106 % of control | dose: 120.0 mg/kg/injection, schedule: Q01DX Z (ip), vehicle: carboxymethylcellulose (CMC) 96 % of control and 98 % of control | dose: 240.0 mg/kg/injection, schedule: Q01DX Z (ip), vehicle: carboxymethylcellulose (CMC) 100 % of control | dose: 480.0 mg/kg/injection, schedule: Q01DX Z (ip), vehicle: carboxymethylcellulose (CMC) 102 % of control

N#Cc1ccc(Nc2ccc(C#N)cc2)cc1
inactive: dose: 25.0 mg/kg/injection, schedule: Q01DX009 (ip), vehicle: saline with Tween-80 105 % of control | [3] 94 % of control | [4] 94 % of control | dose: 100.0 mg/kg/injection, schedule: Q04DX003 (ip), vehicle: saline with Tween-80 96 % of control | dose: 200.0 mg/kg/injection, schedule: Q04DX003 (ip), vehicle: saline with Tween-80 96 % of control | dose: 400.0 mg/kg/injection, schedule: Q04DX003 (ip), vehicle: saline with Tween-80 91 % of control

CC(=O)c1ccc2c3ccccc3n(CCCN3CCC(O)CC3)c2c1
inactive: [5] 95 % of control | dose: 200.0 mg/kg/injection, schedule: Q04DX002 (ip), vehicle: saline 113 % of control

Cc1ccc2c(ccc(/C=C/c3ccc(O)c4ncccc34)[n+]2C)c1
inactive: dose: 22.0 mg/kg/injection, schedule: Q01DX009 (ip), vehicle: Klucel (hydroxypropylcellulose) (HPC) 115 % of control | dose: 33.0 mg/kg/injection, schedule: Q01DX009 (ip), vehicle: Klucel (hydroxypropylcellulose) (HPC) 117 % of control | [6] 108 % of control | [7] 124 % of control | [8] 98 % of control | [9] 124 % of control

O=C(CCC(=O)c1ccccc1)c1ccccc1
inactive: [10] 100 % of control | [11] 98 % of control | [12] 95 % of control

CC1CCCC(C)(CO)O1 (centres undefined)
inactive: [1] 93 % of control | [2] 97 % of control | dose: 200.0 mg/kg/injection, schedule: Q01DX009 (ip), vehicle: saline 101 % of control | [13] 97 % of control | dose: 400.0 mg/kg/injection, schedule: Q01DX009 (ip), vehicle: saline 109 % of control | [14] 97 % of control

O=C1NC(=O)C(c2ccc(Cl)cc2)(c2ccc(Cl)cc2)N1
inactive: dose: 45.0 mg/kg/injection, schedule: Q01DX009 (ip), vehicle: Klucel (hydroxypropylcellulose) (HPC) 99 % of control | dose: 65.0 mg/kg/injection, schedule: Q01DX009 (ip), vehicle: Klucel (hydroxypropylcellulose) (HPC) 95 % of control | [15] 100 % of control | [2] 96 % of control | dose: 150.0 mg/kg/injection, schedule: Q01DX009 (ip), vehicle: Klucel (hydroxypropylcellulose) (HPC) 103 % of control | [16] 100 % of control | [13] 92 % of control | [17] 113 % of control | [14] 97 % of control

CN(C)CC(C)(C)C(=O)c1ccccc1
inactive: dose: 25.0 mg/kg/injection, schedule: Q04DX002 (ip), vehicle: saline 100 % of control | dose: 50.0 mg/kg/injection, schedule: Q04DX002 (ip), vehicle: saline 100 % of control | [5] 104 % of control

CCOC(=O)c1cc(/C=C/c2ccccc2)[nH]c(=O)c1C#N
inactive: [15] 98 % of control | [18] 95 % of control | [16] 97 % of control | [8] 93 % of control | [17] 98 % of control | [19] 90 % of control

COC(=O)/C=C/NC(=O)c1ccccc1C(=O)OC
inactive: [15] 98 % of control | [18] 94 % of control | [16] 96 % of control | [8] 103 % of control | [17] 109 % of control | [19] 100 % of control

Cc1ccc(NC(=O)c2cc([N+](=O)[O-])cc([N+](=O)[O-])c2)c(C)c1
inactive: dose: 100.0 mg/kg/injection, schedule: Q04DX002 (ip), vehicle: Klucel (hydroxypropylcellulose) (HPC) 94 % of control | dose: 200.0 mg/kg/injection, schedule: Q04DX002 (ip), vehicle: Klucel (hydroxypropylcellulose) (HPC) 94 % of control | dose: 400.0 mg/kg/injection, schedule: Q04DX002 (ip), vehicle: Klucel (hydroxypropylcellulose) (HPC) 91 % of control

CCC/C=C/CCCCCC
inactive: [3] 93 % of control | [4] 93 % of control | dose: 200.0 mg/kg/injection, schedule: Q01DX009 (ip), vehicle: saline with Tween-80 104 % of control

CCCOB(OCCC)OCCC
inactive: dose: 50.0 mg/kg/injection, schedule: Q01DX001 (ip), vehicle: saline 95 % of control | dose: 100.0 mg/kg/injection, schedule: Q01DX001 (ip), vehicle: saline 98 % of control | dose: 200.0 mg/kg/injection, schedule: Q01DX001 (ip), vehicle: saline 98 % of control | dose: 400.0 mg/kg/injection, schedule: Q01DX001 (ip), vehicle: saline 106 % of control

N/C(=C\C(=O)Cl)C(=O)c1ccccc1
inactive: [10] 106 % of control | [11] 90 % of control | [12] 105 % of control

CCOC(=O)Nc1nn[nH]n1
inactive: dose: 50.0 mg/kg/injection, schedule: Q01DX001 (ip), vehicle: carboxymethylcellulose (CMC) 92 % of control | [6] 97 % of control | [7] 101 % of control | [9] 90 % of control

From PubChem BioAssay AID248 (DTP/NCI, 2004)
